Assay results reported in patent US20230094952A1, “Method for Culturing Hematopoietic Stem Cells” (Sumitomo Pharma Co., Ltd., priority 2019, published 2023).

Legend:
[1] = test system: mouse long-term hematopoietic stem cells; test: Reproducibility and concentration dependence test: 1-week culture of sorted Hoxb5-tri-mCherry mouse long-term hematopoietic stem cells, flow cytometry; format: cell-based; settings: day 7 of culture, n=2
Outline: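 Hoxb5-tri-mCherry+ LT-HSCs (Lin−c-Kit+Sca-1+Flk2−CD34−/lo CD150+) were sorted from mouse bone marrow at 10 cells/well into StemSpan SFEM with SCF and TPO. Cells were cultured with compound for 1 week at 37°C, 5% CO2. Flow cytometry then measured KLS and mCherry+ fractions and cell counts.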

[2] = test system: human CD34-positive cells transplanted into NOG mouse; test: In vivo engraftment test with human cells in irradiated NOG mouse (peripheral blood donor chimerism); settings: 10000 cells transplanted
Protocol: (§1) Each of artemether and the compound of Example 1-23 was prepared with the cell culture medium at a final concentration of 0.003 μM or 0.01 μM, and added to the above human cells seeded after classification (166 cells were seeded per well) to a final volume of 200 μL/well to act thereon. Thereafter, for each condition, 10000 cells in total of a CD34-positive fraction were cultured in a CO2 incubator under conditions of 37° C. and 5% CO2 for 1 week, and the cell count was determined. Among the cells after culture, 10000 cells, a number equal to the number of cells before culture, were transplanted into an immunocompromised NOG mouse exposed to a lethal dose of radiation. As a comparative sample, 10000 fresh cord blood-derived CD34-positive cells (uncultured) were transplanted. For peripheral blood donor chimerism at each specified time after transplantation, the human CD45-positive cell count and the mouse CD45-positive cell count were determined by using a human-specific CD45 antibody and a mouse-specific CD45 antibody, and the peripheral blood donor chimerism was represented as the proportion of human CD45-positive cells to the total of human CD45-positive cells and mouse CD45-positive cells (chimerism rate).

[3] = test system: human CD34-positive fraction; test: Ex vivo culture of 10000 human CD34-positive cells before transplantation (cell count); format: cell-based; settings: 10000 CD34-positive cells cultured 1 week
Protocol: as §1

Structure (SMILES) | KLS-positive rate ([1]; Table 4, compound 0.1 μM) [%] | Viable cell count ([1]; Table 4, compound 0.1 μM) [cell] | mCherry-positive rate ([1]; Table 4, compound 0.1 μM) [%] | KLS-positive rate ([1]; Table 4, compound 0.3 μM) [%] | Viable cell count ([1]; Table 4, compound 0.3 μM) [cell] | mCherry-positive rate ([1]; Table 4, compound 0.3 μM) [%] | KLS-positive rate ([1]; Table 4, compound 1 μM) [%] | Viable cell count ([1]; Table 4, compound 1 μM) [cell] | mCherry-positive rate ([1]; Table 4, compound 1 μM) [%] | KLS-positive rate ([1]; Table 4, compound 3 μM) [%] | Viable cell count ([1]; Table 4, compound 3 μM) [cell] | mCherry-positive rate ([1]; Table 4, compound 3 μM) [%] | KLS-positive rate ([1]; Table 4, compound 10 μM) [%] | Viable cell count ([1]; Table 4, compound 10 μM) [cell] | mCherry-positive rate ([1]; Table 4, compound 10 μM) [%] | further results
C[C@H]1[C@H](c2ccco2)O[C@@H]2O[C@@]3(C)CC[C@H]4[C@H](C)CC[C@@H]1[C@@]24OO3 [Example 1-7, (3R,5aS,6R,8aS,9R,10R,12R,12aR)-10-(Furan-2-yl)-3,6,9-trimethyldecahydro-12H-3,12-epoxypyrano[4,3-j][1,2]benzodioxepine] | 26.9 | 225.0 | 42.9 | 19.6 | 269.0 | 62.2 | 36.1 | 73.0 | 96.7 | 0.0 | 0.0 | 0.0 | 0.0 | 0.0 | 0.0 | –
COCCO[C@H]1O[C@@H]2O[C@@]3(C)CC[C@H]4[C@H](C)CC[C@@H]([C@H]1C)[C@@]24OO3 [Example 1-23, (3R,5aS,6R,8aS,9R,10S,12R,12aR)-10-(2-methoxyethoxy)-3,6,9-trimethyldecahydro-12H-3,12-epoxypyrano[4,3-j][1,2]benzodioxepine] | 12.4 | 712.5 | 17.9 | 15.4 | 509.0 | 46.5 | 5.3 | 729.0 | 72.7 | 23.2 | 252.0 | 97.3 | 42.3 | 63.5 | 100.0 | Donor chimerism ([2]; cells cultured with compound 0.01 μM, 1 month after transplantation): 0.299 ± 0.049%; Donor chimerism ([2]; cells cultured with compound 0.01 μM, 2 months after transplantation): 0.748 ± 0.585%; Viable cell count ([3]; compound 0.01 μM): 20071 cell
C[C@H]1[C@H](C(N)=O)O[C@@H]2O[C@@]3(C)CC[C@H]4[C@H](C)CC[C@@H]1[C@@]24OO3 [Example 1-16, (3R,5aS,6R,8aS,9R,10R,12R,12aR)-3,6,9-Trimethyldecahydro-12H-3,12-epoxypyrano[4,3-j][1,2]benzodioxepine-10-carboxamide] | 13.3 | 504.5 | 6.8 | 11.6 | 388.5 | 29.2 | 33.4 | 310.0 | 68.2 | 9.2 | 182.5 | 92.4 | 52.6 | 29.0 | 99.0 | –
CO[C@H]1O[C@@H]2O[C@@]3(C)CC[C@H]4[C@H](C)CC[C@@H]([C@H]1C)[C@@]24OO3 [Example 1-30, artemether, reference compound] | 35.3 | 238.0 | 71.2 | 38.4 | 184.0 | 100.0 | 40.1 | 135.5 | 99.0 | 57.4 | 44.5 | 100.0 | 71.4 | 65.0 | 98.2 | Donor chimerism ([2]; cells cultured with compound 0.003 μM, 1 month after transplantation): 0.041 ± 0.022%; Donor chimerism ([2]; cells cultured with compound 0.003 μM, 2 months after transplantation): 0.605 ± 0.95%; Donor chimerism ([2]; cells cultured with compound 0.003 μM, 3 months after transplantation): 2.108 ± 2.479%; Viable cell count ([3]; compound 0.003 μM): 95954 cell; KLS-positive rate ([1]; Table 3, compound 0.1 μM): 50.25%; Viable cell count ([1]; Table 3, compound 0.1 μM): 1109 cell; mCherry-positive rate ([1]; Table 3, compound 0.1 μM): 67.2%; KLS-positive rate ([1]; Table 3, compound 0.3 μM): 22.05%; Viable cell count ([1]; Table 3, compound 0.3 μM): 2632 cell; mCherry-positive rate ([1]; Table 3, compound 0.3 μM): 36.85%; KLS-positive rate ([1]; Table 3, compound 1 μM): 21.4%; Viable cell count ([1]; Table 3, compound 1 μM): 1170.5 cell; mCherry-positive rate ([1]; Table 3, compound 1 μM): 57.85%; KLS-positive rate ([1]; Table 3, compound 3 μM): 50.3%; Viable cell count ([1]; Table 3, compound 3 μM): 115 cell; mCherry-positive rate ([1]; Table 3, compound 3 μM): 98.05%; KLS-positive rate ([1]; Table 3, compound 10 μM): 65.9%; Viable cell count ([1]; Table 3, compound 10 μM): 108.5 cell; mCherry-positive rate ([1]; Table 3, compound 10 μM): 94.45%
